From patent US8278296B2, “Manipulation of brain CDP-diacylglycerol and uses thereof” (priority 2006, dated 2012)
“Also recorded” adds a separate entry of the source.

Tests used:
CDP-diacylglycerol = test: [3H]CDP-diacylglycerol accumulation in rat brain slices; type: cell-based
phosphatidylinositides = test: [3H]inositol phospholipid (phosphatidylinositide) resynthesis in rat brain slices; type: cell-based; settings: 90 min
inositol phosphates = test: [3H]inositol phosphate accumulation in rat brain slices; type: cell-based
[1] = test system: CDP-diacylglycerol/inositol phosphate; test: CDP-DG/IP ratio calculated from brain slice data; type: cell-based, rat; settings: monoamine receptor agonists; frontal cortex or hippocampal tissues
Description: FIGS. 9A-9C are ratios of antidepressant-induced CDP-diacylglycerol versus inositol phosphates. The data in FIGS. 1A-1C, 2A-2B, 3A-3C, 4A-4B, and 5A-5C were recalculated by dividing the CDP-diacylglycerol effects of each concentration of each antidepressant agent by the corresponding effects of the agent on inositol phosphate accumulation to yield the CDP-diacylglycerol/inositol phosphate (CDP-DG/IP) ratios shown. […] Data for each agent were analyzed by One-Way ANOVA followed by posthoc Dunnett tests. ^#p<0.05; *p<0.01; compared to the respective control (zero drug concentration).
As used herein, the term “CDP-DG/IP ratio” refers to the relative value of an index which is the quotient of a level of cellular CDP-diacylglycerol divided by a level of inositol phosphate in a tissue or cell or tissue cultures thereof, e.g., a mammalian brain tissue or blood platelets, a human brain tissue or blood platelets, or other cells or tissues having the ability to metabolize CDP-diacylglycerol and phosphoinositides. Levels may be determined, but are not limited to, using molar concentration or a radiolabel.
To determine if antidepressant agents exert differential effects on CDP-DG production compared to PI hydrolysis, the ratios of CDP-DG production relative to the IPs (CDP-DG/IP ratio) in corresponding treatment conditions were examined.
Corresponding CDP-DG ratios were calculated as for the antidepressant agents. […] The ratios of CDP-DG production relative to IP accumulation are shown on the far right of the graphs in FIGS. 10A-10C and FIGS. 11A-11D.

5HT2 receptor [2] = test: α-methylserotonin-stimulated IP accumulation in tissues prelabeled with [3H]inositol in presence of antidepressants; type: cell-based, rat
rats = test: Forced swim test; type: in vivo, rat
Description: One group of rats was acclimated once in the swim chamber and subgroups of three animals each were administered indicated doses (corresponding to 0, 3, 10, and 30 mg/kg) of imipramine at 24, 3, and 1 h before behavioral testing (conventional regimen). The other group of rats from the same batch was acclimated twice at 48 and 24 h before the time of testing and subgroups were administered the same doses of imipramine at 3 and 1 h before behavioral testing. Animals in each group were then tested in the forced swim apparatus for 5 min and the immobility times determined. […] Each bar is the mean±SEM (n=6). […] Animals were prepared as in FIG. 14 for the modified regimen. […] Test drugs were administered at indicated doses 3 and 1 h before behavioral testing. […] Immobility response data for set one were analyzed by one-way ANOVA (response by dose) in order to determine if the drug by itself produced significant effects. Data for set two were analyzed by one-way ANOVA (response by group, where group comprised control, neomycin, drug, neomycin+drug), followed by posthoc Tukey tests. […] The forced swim test (FST) was applied with some modifications. Rats were transferred to the testing room between 9:00-10:00 AM and allowed at least an hour before being placed individually into translucent polypropylene cylinders (46 cm tall×25 cm in diameter) containing 27 cm depth of water maintained at 25° C. […] After 15 min in the water, the rats were removed, toweled, and allowed to dry in a warm environment before being returned to their home cage. This acclimation step was repeated after 24 h, with the exposure time reduced from 15 to 5 min. […] During the second acclimation exposure, the duration of immobility was recorded for each animal. […] To adjudge that a rat had become immobile, the animal had to float passively in the water in a slightly hunched, but upright position, making only minimal movements necessary to keep its head above the water (65-66). On the third day when animals were to undergo experimental assessment, saline or the indicated antidepressant agents were administered i.p. at 3 h and at 1 h before behavioral testing. The drugs were dissolved in distilled-deionized water and diluted in saline. Control subjects received 0.9% saline. […] Data were analyzed by one-way analysis of variance (ANOVA).

5HT2 receptor [3] = settings: hippocampus, similar in frontal cortex
Description: Hippocampal slices were incubated with either [^3H]inositol (FIGS. 13A-13B) or [^3H]cytidine (FIG. 13C) for 30 min, followed by addition of indicated concentrations of LY53857 (6-methyl-1-(1-methylethyl)-ergoline-8β-carboxylic acid 2-hydroxy-1-methylpropyl ester maleate). […] After 60 min, tritiated inositol phosphate, inositol phospholipids, or CDP-diacylglycerol were assayed. Each bar is the mean±SEM (n=6). Data for each analyte were normalized across experiments and test drugs and then were analyzed for each drug by One-Way ANOVA of responses measured at the four concentration conditions of LY53857 (0, 0.1, 1, 10 μM). The ANOVAs were followed with Dunnett tests comparing the response in the presence of each concentration of LY53857 to the control effect of the antidepressant alone.
To examine the extent to which the enhancing effects of antidepressant agents on inositol phosphate accumulation were dependent on postsynaptic 5HT2 receptor stimulation, each antidepressant was challenged with a range of concentrations of the 5HT2 receptor-selective antagonist, LY53857 (71-72). The antagonist was added after the prelabeling phase, but 15 min prior to the addition of α-methylserotonin to the incubating slices.

[4] = monoamine receptor agonists, frontal cortex or hippocampal tissues, 5 mM LiCl, 90 min

Structure (SMILES)	effect on CDP-DG production (CDP-diacylglycerol; [4])	effect on PI synthesis (phosphatidylinositides; […], frontal cortex or hippocampal tissues, 5 mM LiCl)	effect on IP accumulation (inositol phosphates; [4])	CDP-DG/IP ratio [1]	IP accumulation induced by agonist by itself (5HT2 receptor [2]; hippocampus, frontal cortex, striatum, 60 min, 5 mM LiCl)	effect on [3H]CDP-diacylglycerol accumulation (CDP-diacylglycerol; rat hippocampal, prefrontal cortical and striatal slices, LiCl present, 90 min)	lowest concentration with statistically significant CDP-diacylglycerol response (CDP-diacylglycerol; striatum slices, posthoc Dunnett test) [µM]	effect on [3H]inositol labeling of PIs (phosphatidylinositide synthesis) (phosphatidylinositides; hippocampus, frontal cortex, striatum slices)	effect on accumulation of IPs (inositol phosphates; 3-300 μM, hippocampus, frontal cortex, striatum slices)	enhancement of α-methylserotonin effects on IP by prelabeling with antidepressant (5HT2 receptor [2]; frontal cortex tissues)	enhancement of α-Me5HT-induced IP accumulation by prelabeling in presence of antidepressant (5HT2 receptor [2]; hippocampus, frontal cortex, striatum)	enhancement of α-methylserotonin effects on IP by prelabeling with antidepressant (5HT2 receptor [2]; striatal tissues)	effect on immobility behavior in forced swim test (rats; conventional and modified regimens, 0, 3, 10, 30 mg/kg)	effect on immobility times in forced swim test (rats; modified regimen, i.p. at 3 h and 1 h before testing)	inhibition by 5HT2 receptor blockade (LY53857) of the drug's PI labeling / phosphatidylinositol resynthesis effect (5HT2 receptor [3])
CC(N)Cc1c[nH]c2ccc(O)cc12 (stereo not drawn) [α-methylserotonin]	significantly increased	significant but relatively small effects	significantly increased	no concentration-related increase	significant increases	–	–	–	–	–	–	–	–	–	–
CN(C)CCCN1c2ccccc2CCc2ccccc21 [imipramine]	–	–	–	–	–	significantly and dose-dependently enhanced	30	significantly increased	significantly and dose-dependently stimulated	concentration-dependently enhanced	significantly enhanced	not significantly enhanced	significant dose-related effects; also recorded: significant and dose-related	significant and dose-dependent reductions	only partially, though significantly, reduced
